In PubChem BioAssay (NCI):
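The compound was tested at five concentrations on cells cultured in 96-well plates, with a 48-hour exposure period. TGI marks complete inhibition of growth.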

Columns and labels:
Experiment in all cases: NCI-60 cell line screen, 48 h
786-0 renal = test system: 786-0 renal
A549 NSCLC = test system: A549 NSCLC
ACHN renal = test system: ACHN renal
BT-549 breast = test system: BT-549 breast
CAKI-1 renal = test system: CAKI-1 renal
CCRF-CEM leukemia = test system: CCRF-CEM leukemia
COLO 205 colon = test system: COLO 205 colon
DU-145 prostate = test system: DU-145 prostate
EKVX NSCLC = test system: EKVX NSCLC
HCC-2998 colon = test system: HCC-2998 colon
HCT-116 colon = test system: HCT-116 colon
HCT-15 colon = test system: HCT-15 colon
HL-60(TB) leukemia = test system: HL-60(TB) leukemia
HOP-62 NSCLC = test system: HOP-62 NSCLC
HOP-92 NSCLC = test system: HOP-92 NSCLC
HS 578T breast = test system: HS 578T breast
HT29 colon = test system: HT29 colon
IGROV1 ovarian = test system: IGROV1 ovarian
K-562 leukemia = test system: K-562 leukemia
KM12 colon = test system: KM12 colon
LOX IMVI melanoma = test system: LOX IMVI melanoma
M14 melanoma = test system: M14 melanoma
MCF7 breast = test system: MCF7 breast
MDA-MB-231 breast = test system: MDA-MB-231 breast
MDA-MB-435 = test system: MDA-MB-435
MDA-N = test system: MDA-N
MOLT-4 leukemia = test system: MOLT-4 leukemia
NCI-H226 lung = test system: NCI-H226 lung
NCI-H23 lung = test system: NCI-H23 lung
NCI-H460 lung = test system: NCI-H460 lung
NCI-H522 lung = test system: NCI-H522 lung
NCI/ADR-RES ovarian = test system: NCI/ADR-RES ovarian
OVCAR-3 ovarian = test system: OVCAR-3 ovarian
OVCAR-4 ovarian = test system: OVCAR-4 ovarian
OVCAR-5 ovarian = test system: OVCAR-5 ovarian
OVCAR-8 ovarian = test system: OVCAR-8 ovarian
PC-3 prostate = test system: PC-3 prostate
RPMI-8226 leukemia = test system: RPMI-8226 leukemia
RXF 393 renal = test system: RXF 393 renal
SF-268 CNS = test system: SF-268 CNS
SF-295 CNS = test system: SF-295 CNS
SF-539 CNS = test system: SF-539 CNS
SK-MEL-2 melanoma = test system: SK-MEL-2 melanoma
SK-MEL-28 melanoma = test system: SK-MEL-28 melanoma
SK-OV-3 ovarian = test system: SK-OV-3 ovarian
SN12C renal = test system: SN12C renal
SNB-19 CNS = test system: SNB-19 CNS
SNB-75 CNS = test system: SNB-75 CNS
SR leukemia = test system: SR leukemia
SW-620 colon = test system: SW-620 colon
T-47D breast = test system: T-47D breast
TK-10 renal = test system: TK-10 renal
U251 CNS = test system: U251 CNS
UACC-257 melanoma = test system: UACC-257 melanoma
UACC-62 melanoma = test system: UACC-62 melanoma
UO-31 renal = test system: UO-31 renal

Measured: TGI

CCCC1CCC(=C2C(=O)CCC2=O)O1 (stereo unspecified)
> 100 µM: all assays above
